# Several values for one entry are separate records, joined by “and”; a condition that tells them apart may be missing. Identical values can stand only once. Marks after values point to notes of the source that are not given here. Non-standard residues stand in square brackets, D forms with d. Residues, ends and D or L forms follow the SMILES beside them. *: point of attachment. Asu = N[C@@H](CCCCCC(=O)O)C(=O)O; NHOH = ON*
# What was measured:
# HDAC1 [1] = target: T1, HDAC1 (Homo sapiens, UniProt Q13547); assay: Recombinant HDAC µSPOT microarray binding assay;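 note: slides with spotted peptides incubated with six HDAC concentrations in HEPES buffer pH 7.4, spot intensities fitted by four-parameter logistic, EC50 as enzyme concentration giving half-maximal binding signal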
# T1 construct: HDAC1 (full length, C-terminal His tag, C-terminal FLAG tag, BPS Bioscience, cat. #: 50051); FLAG (C); purchased BPS Bioscience 50051
# Experimental: Experiments were performed twice, data were obtained with Array Analyze software (Active Motif), and data analysis and representation were performed with the GraphPad Prism 7 software. Outliers were curated manually and data were fitted to nonlinear regression [log(agonist) vs. response—variable slope (four parameters)]. […] Non-sigmoidal curves were denoted as not determined (N.D.) The pEC50 values were determined as the concentration of HDAC enzyme required for half-maximal binding signal.
# HDAC8 [2] = target: T2, HDAC8 (Homo sapiens, UniProt Q9BY41); assay: HDAC inhibition assay (fluorogenic, Ac-Leu-Gly-Lys(Tfa)-AMC); format: biochemical; conditions: for HDAC8 dose-response data (relative enzyme activity, replicate values), Fig. 6 + S. Fig. 10: two replicate columns per inhibitor; for HDAC8 dose-response data (relative enzyme activity), Fig. 6 + S. Fig. 10: duplicate columns
# T2 construct: HDAC8 (full length, C-terminal His tag, BPS Bioscience, cat. #: 50008); purchased BPS Bioscience 50008
# T2 sequence (Q9BY41 1-377): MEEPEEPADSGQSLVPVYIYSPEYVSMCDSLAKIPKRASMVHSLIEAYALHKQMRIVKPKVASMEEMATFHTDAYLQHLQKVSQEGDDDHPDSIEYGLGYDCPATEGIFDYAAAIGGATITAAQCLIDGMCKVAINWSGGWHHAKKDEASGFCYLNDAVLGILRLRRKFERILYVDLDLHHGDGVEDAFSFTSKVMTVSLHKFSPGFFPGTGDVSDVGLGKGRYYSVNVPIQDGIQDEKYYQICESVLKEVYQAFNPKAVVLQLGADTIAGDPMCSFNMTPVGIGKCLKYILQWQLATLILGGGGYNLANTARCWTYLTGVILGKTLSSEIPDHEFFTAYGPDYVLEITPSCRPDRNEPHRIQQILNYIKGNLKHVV
# HDAC6 = target: T3, HDAC6 (Homo sapiens, UniProt Q9UBN7); assay: HDAC inhibition assay (fluorogenic, Ac-Leu-Gly-Lys(Ac)-AMC); format: biochemical; conditions: HDAC6, replicates
# T3 construct: HDAC6 (full length, BPS Bioscience, cat. #: 50056); purchased BPS Bioscience 50056
# T3 sequence (Q9UBN7 1-1215): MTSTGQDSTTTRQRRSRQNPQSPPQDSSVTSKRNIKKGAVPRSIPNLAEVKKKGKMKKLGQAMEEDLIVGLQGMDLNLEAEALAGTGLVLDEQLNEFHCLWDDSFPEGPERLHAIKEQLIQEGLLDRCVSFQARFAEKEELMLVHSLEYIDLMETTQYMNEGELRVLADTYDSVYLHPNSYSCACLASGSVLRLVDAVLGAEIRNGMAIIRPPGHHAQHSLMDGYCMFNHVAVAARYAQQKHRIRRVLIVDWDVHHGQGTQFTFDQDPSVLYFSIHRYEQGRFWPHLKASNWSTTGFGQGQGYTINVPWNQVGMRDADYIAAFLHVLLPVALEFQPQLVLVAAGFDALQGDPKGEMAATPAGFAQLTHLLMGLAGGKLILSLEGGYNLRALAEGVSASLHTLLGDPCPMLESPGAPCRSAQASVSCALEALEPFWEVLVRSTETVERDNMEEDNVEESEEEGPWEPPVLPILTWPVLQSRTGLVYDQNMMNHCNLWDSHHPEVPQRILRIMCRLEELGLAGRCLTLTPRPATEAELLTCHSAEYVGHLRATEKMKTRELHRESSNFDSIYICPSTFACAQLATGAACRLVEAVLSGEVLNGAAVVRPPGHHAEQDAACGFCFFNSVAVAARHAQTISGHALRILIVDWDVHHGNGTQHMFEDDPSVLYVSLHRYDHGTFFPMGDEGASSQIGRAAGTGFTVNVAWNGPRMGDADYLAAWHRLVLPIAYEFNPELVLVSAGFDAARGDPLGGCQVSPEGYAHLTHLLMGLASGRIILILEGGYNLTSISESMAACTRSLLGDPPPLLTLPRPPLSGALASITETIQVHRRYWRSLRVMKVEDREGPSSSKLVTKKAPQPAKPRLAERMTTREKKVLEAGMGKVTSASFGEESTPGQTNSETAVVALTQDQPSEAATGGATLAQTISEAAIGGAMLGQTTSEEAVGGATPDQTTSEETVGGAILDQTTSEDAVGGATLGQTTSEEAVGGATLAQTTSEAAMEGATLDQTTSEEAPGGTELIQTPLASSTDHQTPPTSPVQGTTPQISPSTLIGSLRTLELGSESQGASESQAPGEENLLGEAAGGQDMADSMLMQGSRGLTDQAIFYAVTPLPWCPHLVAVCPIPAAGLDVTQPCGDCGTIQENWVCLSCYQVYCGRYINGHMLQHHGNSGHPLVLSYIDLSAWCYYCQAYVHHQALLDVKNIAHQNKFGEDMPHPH
# HDAC8 [3] = target: T2, HDAC8; assay: Recombinant HDAC µSPOT microarray binding assay
# HDAC3/NCoR2 [4] = target: T4, HDAC3/NCoR2 (Homo sapiens, UniProt O15379); assay: HDAC inhibition assay (fluorogenic, Ac-Leu-Gly-Lys(Ac)-AMC); format: biochemical; conditions: for HDAC3 dose-response data (relative enzyme activity), Fig. 6 + S. Fig. 10: duplicate columns
# T4 construct: HDAC3/NCoR2 (full length, C-terminal His tag, NCoR2 N-terminal GST tag); purchased BPS Bioscience 50003
# HDAC2 [5] = target: T5, HDAC2 (Homo sapiens, UniProt Q92769); assay: Recombinant HDAC µSPOT microarray binding assay;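 note: Cellulose-bound peptide spots on slides incubated with six HDAC enzyme concentrations, binding intensity read, four-parameter variable-slope fit, EC50 is enzyme concentration giving half-maximal binding, in HEPES buffer pH 7.4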
# T5 construct: HDAC2 (full length, C-terminal His tag, BPS Bioscience, cat. #: 50002); purchased BPS Bioscience 50002
# HDAC3/NCoR2 [6] = target: T4, HDAC3/NCoR2; assay: Recombinant HDAC µSPOT microarray binding assay
# HDAC1 [7] = target: T1, HDAC1; assay: HDAC inhibition assay (fluorogenic, Ac-Leu-Gly-Lys(Ac)-AMC); format: biochemical; conditions: for HDAC1 dose-response data (relative enzyme activity), Fig. 6 + S. Fig. 10: duplicate columns
# HDAC2 [8] = target: T5, HDAC2; assay: as above; format: biochemical; conditions: for HDAC2 dose-response data (relative enzyme activity), Fig. 6 + S. Fig. 10: duplicate columns
# [9] = log[inhibitor(M)] -10,5850266520292*, whole line marked with asterisks
# T5 sequence (Q92769 whole entry): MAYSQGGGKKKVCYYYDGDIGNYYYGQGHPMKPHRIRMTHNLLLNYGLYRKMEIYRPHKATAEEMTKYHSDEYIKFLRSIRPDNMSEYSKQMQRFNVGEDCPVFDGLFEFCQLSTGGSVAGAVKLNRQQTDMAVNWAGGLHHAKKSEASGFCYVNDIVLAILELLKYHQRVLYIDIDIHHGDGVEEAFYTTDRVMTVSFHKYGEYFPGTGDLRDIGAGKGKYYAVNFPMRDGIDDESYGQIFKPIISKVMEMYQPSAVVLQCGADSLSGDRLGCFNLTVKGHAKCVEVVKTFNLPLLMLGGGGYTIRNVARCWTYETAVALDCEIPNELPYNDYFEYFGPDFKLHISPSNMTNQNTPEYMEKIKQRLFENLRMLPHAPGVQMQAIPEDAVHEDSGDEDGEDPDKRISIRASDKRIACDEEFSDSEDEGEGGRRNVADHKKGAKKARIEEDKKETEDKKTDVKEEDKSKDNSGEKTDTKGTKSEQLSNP
# T1 sequence (Q13547 whole entry): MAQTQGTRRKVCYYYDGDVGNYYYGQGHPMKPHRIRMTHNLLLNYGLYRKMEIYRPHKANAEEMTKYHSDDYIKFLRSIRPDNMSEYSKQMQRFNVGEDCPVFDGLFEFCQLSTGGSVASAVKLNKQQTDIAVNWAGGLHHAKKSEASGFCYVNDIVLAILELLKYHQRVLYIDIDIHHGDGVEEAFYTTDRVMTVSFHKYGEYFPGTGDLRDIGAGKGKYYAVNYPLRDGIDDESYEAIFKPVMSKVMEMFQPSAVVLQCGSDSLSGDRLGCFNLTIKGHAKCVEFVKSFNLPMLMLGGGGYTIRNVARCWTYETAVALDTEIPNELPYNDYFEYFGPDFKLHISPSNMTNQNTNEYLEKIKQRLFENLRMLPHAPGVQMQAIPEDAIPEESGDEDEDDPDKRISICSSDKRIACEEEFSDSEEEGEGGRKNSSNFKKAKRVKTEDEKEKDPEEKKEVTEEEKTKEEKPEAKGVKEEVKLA
# T4 sequence (O15379 whole entry): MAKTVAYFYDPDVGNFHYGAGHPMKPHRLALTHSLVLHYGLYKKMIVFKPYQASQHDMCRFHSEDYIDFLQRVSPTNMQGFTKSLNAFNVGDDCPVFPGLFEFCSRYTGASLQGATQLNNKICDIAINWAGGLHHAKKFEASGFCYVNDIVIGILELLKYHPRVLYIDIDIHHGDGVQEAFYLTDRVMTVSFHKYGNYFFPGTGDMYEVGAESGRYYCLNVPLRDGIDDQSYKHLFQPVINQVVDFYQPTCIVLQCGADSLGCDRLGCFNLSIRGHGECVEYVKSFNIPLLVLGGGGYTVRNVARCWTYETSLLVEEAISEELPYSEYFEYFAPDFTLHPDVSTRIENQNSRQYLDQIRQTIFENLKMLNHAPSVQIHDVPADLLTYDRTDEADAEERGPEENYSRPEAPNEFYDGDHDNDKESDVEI
# T4 sequence (Q9Y618 389-480 partner limits assumed): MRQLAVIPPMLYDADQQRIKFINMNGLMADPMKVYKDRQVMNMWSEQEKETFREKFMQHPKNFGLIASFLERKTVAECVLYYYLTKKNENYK
smiles,measurement,setting,value
CC[C@H](C)[C@H](NC(=O)[C@@H](NC(=O)[C@H](CC(N)=O)NC(C)=O)C(C)C)C(=O)N[C@@H](CCCNC(=N)N)C(=O)N[C@@H](CC(=O)O)C(=O)N[C@@H](C)C(=O)N[C@H](C(=O)N[C@H](C(=O)N[C@@H](Cc1ccc(O)cc1)C(=O)N[C@H](C(=O)N[C@@H](CCC(=O)O)C(=O)N[C@@H](Cc1c[nH]cn1)C(=O)N[C@@H](C)C(=O)N[C@@H](CCCCCC(=O)NO)C(=O)N[C@@H](CCCNC(=N)N)C(=O)N[C@@H](CCCCN)C(=O)N[C@@H](Cc1c[nH]c2ccccc12)C(N)=O)[C@@H](C)O)[C@@H](C)O)C(C)C [17a] (Ac-NVIRDAVTYTEHA[Asu](NHOH)RKW-NH2),EC50,HDAC1 [1],> 25.1 nM
same,Ki,HDAC8 [2],7640 ± 60 nM
same,"HDAC8 dose-response data (relative enzyme activity, replicate values), Fig. 6 + S. Fig. 10",HDAC8 [2]; Inhibitor conc [M] -8.49485 (log),101.42 and 103.54
same,"HDAC8 dose-response data (relative enzyme activity, replicate values), Fig. 6 + S. Fig. 10",HDAC8 [2]; Inhibitor conc [M] -9.19382 (log),101.25 and 102.69
same,"HDAC8 dose-response data (relative enzyme activity, replicate values), Fig. 6 + S. Fig. 10",HDAC8 [2]; Inhibitor conc [M] given as -7.09691 (log),100.44 and 104.26
same,"HDAC8 dose-response data (relative enzyme activity, replicate values), Fig. 6 + S. Fig. 10",HDAC8 [2]; Inhibitor conc [M] given as -7.79588 (log),103.27 and 103.5
same,"HDAC8 dose-response data (relative enzyme activity, replicate values), Fig. 6 + S. Fig. 10",HDAC8 [2]; Inhibitor conc [M] given as -9.89279 (log),103.01 and 103.7
same,"HDAC8 dose-response data (relative enzyme activity, replicate values), Fig. 6 + S. Fig. 10",HDAC8 [2]; Inhibitor conc [M] given as -10.585 (log),"99,9* and 101,68*"
same,"HDAC8 dose-response data (relative enzyme activity), Fig. 6 + S. Fig. 10",HDAC8 [2]; Inhibitor conc [M] -4.30103,25.68 and 25
same,"HDAC8 dose-response data (relative enzyme activity), Fig. 6 + S. Fig. 10",HDAC8 [2]; Inhibitor conc [M] -5,60.57 and 62.81
same,"HDAC8 dose-response data (relative enzyme activity), Fig. 6 + S. Fig. 10",HDAC8 [2]; Inhibitor conc [M] -5.69897,94.41 and 91.83
same,"HDAC8 dose-response data (relative enzyme activity), Fig. 6 + S. Fig. 10",HDAC8 [2]; Inhibitor conc [M] -6.39794,100.36 and 103.01
same,residual enzymatic activity relative to control wells,HDAC6; log[inhibitor(M)] -4.30103,0.85 and 0.89
same,residual enzymatic activity relative to control wells,HDAC6; log[inhibitor(M)] -5,2.67 and 3.1
same,residual enzymatic activity relative to control wells,HDAC6; log[inhibitor(M)] -5.69897,11.05 and 12.51
same,residual enzymatic activity relative to control wells,HDAC6; log[inhibitor(M)] -6.39794,38.36 and 40.68
same,residual enzymatic activity relative to control wells,HDAC6; log[inhibitor(M)] -7.09691,72.92 and 74.07
same,residual enzymatic activity relative to control wells,HDAC6; log[inhibitor(M)] -7.79588,92.5 and 90.62
same,residual enzymatic activity relative to control wells,HDAC6; log[inhibitor(M)] -8.49485,97.52 and 97.55
same,residual enzymatic activity relative to control wells,HDAC6; log[inhibitor(M)] -9.19382,99.98 and 98.59
same,residual enzymatic activity relative to control wells,HDAC6; log[inhibitor(M)] -9.89279,98.46 and 98.12
same,residual enzymatic activity relative to control wells,HDAC6; log[inhibitor(M)] -10.585,"98,71* and 97,59*"
same,EC50,HDAC8 [3],> 25.1 nM
same,Ki,HDAC3/NCoR2 [4],90.7 ± 0.3 nM
same,"HDAC3 dose-response data (relative enzyme activity), Fig. 6 + S. Fig. 10",HDAC3/NCoR2 [4]; log[inhibitor(M)] -4.30103,1.48 and 1.63
same,"HDAC3 dose-response data (relative enzyme activity), Fig. 6 + S. Fig. 10",HDAC3/NCoR2 [4]; log[inhibitor(M)] -5,5.89 and 6.06
same,"HDAC3 dose-response data (relative enzyme activity), Fig. 6 + S. Fig. 10",HDAC3/NCoR2 [4]; log[inhibitor(M)] -5.69897,20.29 and 20.52
same,"HDAC3 dose-response data (relative enzyme activity), Fig. 6 + S. Fig. 10",HDAC3/NCoR2 [4]; log[inhibitor(M)] -6.39794,47.71 and 47.78
same,"HDAC3 dose-response data (relative enzyme activity), Fig. 6 + S. Fig. 10",HDAC3/NCoR2 [4]; log[inhibitor(M)] -7.09691,75.88 and 76.54
same,"HDAC3 dose-response data (relative enzyme activity), Fig. 6 + S. Fig. 10",HDAC3/NCoR2 [4]; log[inhibitor(M)] -7.79588,91.62 and 91.95
same,"HDAC3 dose-response data (relative enzyme activity), Fig. 6 + S. Fig. 10",HDAC3/NCoR2 [4]; log[inhibitor(M)] -8.49485,95.02 and 96.22
same,"HDAC3 dose-response data (relative enzyme activity), Fig. 6 + S. Fig. 10",HDAC3/NCoR2 [4]; log[inhibitor(M)] -9.19382,95.35 and 97.08
same,"HDAC3 dose-response data (relative enzyme activity), Fig. 6 + S. Fig. 10",HDAC3/NCoR2 [4]; log[inhibitor(M)] -9.89279,93.78 and 97.79
same,"HDAC3 dose-response data (relative enzyme activity), Fig. 6 + S. Fig. 10",HDAC3/NCoR2 [4]; [9],"97,93* and 99,33*"
same,EC50,HDAC2 [5],2 nM
same,EC50,HDAC3/NCoR2 [6],3.16 nM
same,Ki,HDAC1 [7],198 ± 1 nM
same,"HDAC1 dose-response data (relative enzyme activity), Fig. 6 + S. Fig. 10",HDAC1 [7]; log[inhibitor(M)] -4.30103,2.18 and 2.15
same,"HDAC1 dose-response data (relative enzyme activity), Fig. 6 + S. Fig. 10",HDAC1 [7]; log[inhibitor(M)] -5,8.98 and 8.99
same,"HDAC1 dose-response data (relative enzyme activity), Fig. 6 + S. Fig. 10",HDAC1 [7]; log[inhibitor(M)] -5.69897,31.34 and 30.75
same,"HDAC1 dose-response data (relative enzyme activity), Fig. 6 + S. Fig. 10",HDAC1 [7]; log[inhibitor(M)] -6.39794,69.51 and 67.92
same,"HDAC1 dose-response data (relative enzyme activity), Fig. 6 + S. Fig. 10",HDAC1 [7]; log[inhibitor(M)] -7.09691,91.81 and 91.08
same,"HDAC1 dose-response data (relative enzyme activity), Fig. 6 + S. Fig. 10",HDAC1 [7]; log[inhibitor(M)] -7.79588,100.43 and 97.85
same,"HDAC1 dose-response data (relative enzyme activity), Fig. 6 + S. Fig. 10",HDAC1 [7]; log[inhibitor(M)] -8.49485,101.87 and 100.28
same,"HDAC1 dose-response data (relative enzyme activity), Fig. 6 + S. Fig. 10",HDAC1 [7]; log[inhibitor(M)] -9.19382,101.68 and 99.1
same,"HDAC1 dose-response data (relative enzyme activity), Fig. 6 + S. Fig. 10",HDAC1 [7]; log[inhibitor(M)] -9.89279,102.02 and 100.95
same,"HDAC1 dose-response data (relative enzyme activity), Fig. 6 + S. Fig. 10",HDAC1 [7]; [9],"100,29* and 101,16*"
same,"HDAC2 dose-response data (relative enzyme activity), Fig. 6 + S. Fig. 10",HDAC2 [8]; log[inhibitor(M)] -5,11.53 and 14.13
same,"HDAC2 dose-response data (relative enzyme activity), Fig. 6 + S. Fig. 10",HDAC2 [8]; log[inhibitor(M)] -5.69897,38.85 and 44.3
same,"HDAC2 dose-response data (relative enzyme activity), Fig. 6 + S. Fig. 10",HDAC2 [8]; log[inhibitor(M)] -7.79588,99.37 and 102.1
same,"HDAC2 dose-response data (relative enzyme activity), Fig. 6 + S. Fig. 10",HDAC2 [8]; [9],"100,76* and 101,65*"
same,Ki,"HDAC2 [8]; resynthesized peptide in solution, Cheng-Prusoff, n = 2",183 ± 1 nM

# From PMC7782793, “Hydroxamic acid-modified peptide microarrays for profiling isozyme-selective interactions and inhibition of histone deacetylases” (Nature Communications, 2021)
